Laboratory results published in patent publication US6073962A (priority 1994, dated 2000).

Test system: mouse
Settings: in vivo, po

| Structure (SMILES) | Death rate of 30 mg adm. | Death rate of 300 mg adm. | Death rate of 2000 mg adm. | LD50 level |
| --- | --- | --- | --- | --- |
| NN.NN.O=[N+]([O-])[O-].O=[N+]([O-])[O-].[Zn+2] [Ex. 1, Zn.2(N2 H4).2(NO3)] | 0/10 | 0/10 | 10/10 | > 300 mg/kg |
| NNC(=O)NN.NNC(=O)NN.NNC(=O)NN.O=[N+]([O-])[O-].O=[N+]([O-])[O-].[Zn+2] [Ex. 25, Zn.3(CDH).2(NO3)] | 0/10 | 3/10 | 10/10 | > 300 |
